Values joined by “and” are separate entries in the source; they are usually repeats but may differ in a detail not shown here. Identical values can stand only once.
Experiments:
[1] = system: GOSHI Gossypium hirsutum (American upland cotton); experiment: Ipfencarbazone biostimulant effect, early post emergence foliar application, greenhouse pots, plant height: cotton; assay type: in vivo; settings: for Plant HEIGHT, Mean / Plant HEIGHT, single plots: Cotton 975WS; for HEIGHT, percent of untreated check (APoC) / HEIGHT, treatment mean: GOSHI 975WS
Text: (§1) The original objective of this Example was to evaluate the herbicidal effect of ipfencarbazone when applied as a post emergent treatment to a range of selected crops and weeds. Unexpectedly, crop plant growth stimulation was observed. The actual species of weeds and crops are listed in the summary data tabulated below and in FIGS. 1-13. By convention each plant species has a Bayer code (5-letter name) with the scientific name for the plant referenced in FIGS. 1-13. In each Figure, each tray contains the same configuration of weeds and/or crops. In each Figure there is one replication of each treatment (six treatments in total). The top three photographs in each Figure show the Bayer Codes and bottom three photographs are aligned with the top three facilitating viewing of the same plant species. Throughout the Examples various abbreviations as conventional shorthand notation and will be appreciated by those skilled in the art. Some exemplary abbreviations include, “CV”=Co-efficient of Variation,” “LSD”=Least Significant Difference” (G/L (gram per L) AND GA/L (gram of active ingredient per L); “SC”=suspension concentrate formulation. The diluent in all treatments was water. By convention factors that are identical in all treatments (e.g. diluent and surfactant) are not listed in each treatment.
(§2) Methods: The indicated size pots (see Tables below) are filled with a specific soil, the soil properties being indicated below. The referenced crops and weeds are planted by hand in each pot. […] The experiments include six treatments each replicated three times on each crop/weed species. At a specific time after emergence each crop and weed species was treated with ipfencarbazone plus a non-ionic surfactant (NIS). In the present Example, the surfactant employed was ENERGIC™ (non-ionic surfactant). The application timing is indicated in each of the Tables (1 or 2 leaf stage) below. Ipfencarbazone plus surfactant was diluted in water and applied at a rate equivalent to about 250 L/ha. Ipfencarbazone was applied using a track sprayer. After treatment, the pots were randomized in a greenhouse. At each assessment (indicated by “days after treatment” or DAT) the height of each plant was measured. The letters next to each mean indicate the level of statistical significance.
(§3) Replications: 3, Untreated treatments: 1, Design: Randomized Complete Block (RCB), Treatment units: Treated ‘Plot’ experimental unit size, Dry Form. Unit: %, Treated ‘Plot’ experimental unit size Width: 1 meter, Treated ‘Plot’ experimental unit size Length: 1.4 meters, Application volume: 250 L/ha, Mix size: 0.15 liters, […]

[2] = system: SORVU Sorghum bicolor (Grain sorghum); experiment: Ipfencarbazone biostimulant effect, early post emergence foliar application, greenhouse pots, plant height: sorghum; assay type: in vivo; settings: for Plant HEIGHT, Mean / Plant HEIGHT, single plots: Grain sorghum DKB 590, 15 DA-A; for HEIGHT, percent of untreated check (APoC) / HEIGHT, treatment mean / HEIGHT, single plots (replicates): SORVU DKB 590
Text: as §1, §2, §3

[3] = 15 DA-A, 62.5 g ai/ha + Energic NIS 0.2 % v/v
[4] = 15 DA-A, 125 g ai/ha + Energic NIS 0.2 % v/v
[5] = 15 DA-A, 250 g ai/ha + Energic NIS 0.2 % v/v
[6] = 15 DA-A, 500 g ai/ha + Energic NIS 0.2 % v/v
[7] = 28 DA-A, 62.5 g ai/ha + Energic NIS 0.2 % v/v
[8] = 28 DA-A, 125 g ai/ha + Energic NIS 0.2 % v/v
[9] = 62.5 g ai/ha + Energic NIS 0.2 % v/v
[10] = 125 g ai/ha + Energic NIS 0.2 % v/v
[11] = 250 g ai/ha + Energic NIS 0.2 % v/v
[12] = 500 g ai/ha + Energic NIS 0.2 % v/v

With `CC(C)N(C(=O)n1cnn(-c2ccc(Cl)cc2Cl)c1=O)c1ccc(F)cc1F` [ARY-0572-001, ipfencarbazone] as the compound, how does the “Plant HEIGHT, Mean” value [1, 3] read?
The value was 16.1 cm.

What about the “Plant HEIGHT, single plots” value [1, 3] of the same compound?
Its value is 19.2 cm and 13.7 cm and 15.3 cm.

What about the “Plant HEIGHT, Mean” value [1, 4] of the same compound?
Its value is 11.9 cm.

What about the “Plant HEIGHT, single plots” value [1, 4] of the same compound?
Its value is 9.7 cm and 12.0 cm and 14.0 cm.

And the “Plant HEIGHT, Mean” value [1, 5]?
The value was 9.5 cm.

What about the “Plant HEIGHT, single plots” value [1, 5] of the same compound?
Its value is 9.3 cm and 9.2 cm and 10.0 cm.

And the “Plant HEIGHT, Mean” value [1, 6]?
Its value is 7.7 cm.

What about the “Plant HEIGHT, single plots” value [1, 6] of the same compound?
The value was 9.2 cm and 6.3 cm and 7.7 cm.

What about the “Plant HEIGHT, Mean” value ([1]; 15 DA-A, 1000 g ai/ha + Energic NIS 0.2 % v/v) of the same compound?
The value was 6.9 cm.

And the “Plant HEIGHT, Mean” value [1, 7]?
Its value is 24.9 cm.

What about the “Plant HEIGHT, single plots” value [1, 7] of the same compound?
The value was 26.0 cm and 27.7 cm and 21.0 cm.

And the “Plant HEIGHT, Mean” value [1, 8]?
The value was 17.7 cm.

And the “Plant HEIGHT, single plots” value [1, 8]?
The value was 19.0 cm and 17.3 cm and 16.7 cm.

And the “Plant HEIGHT, Mean” value ([1]; 28 DA-A, 250 g ai/ha + Energic NIS 0.2 % v/v)?
The value was 15.8 cm.

What about the “Plant HEIGHT, Mean” value ([1]; 28 DA-A, 500 g ai/ha + Energic NIS 0.2 % v/v) of the same compound?
Its value is 13.2 cm.

What about the “Plant HEIGHT, Mean” value ([1]; 28 DA-A, 1000 g ai/ha + Energic NIS 0.2 % v/v) of the same compound?
Its value is 8.9 cm.

And the “HEIGHT, percent of untreated check (APoC)” value (shortened to “HEIGHT, percent”) ([1]; 62.5 g ai/ha, 15 DA-A)?
Its value is “(137.6%)”.

And the “HEIGHT, treatment mean” value ([1]; 62.5 g ai/ha, 15 DA-A)?
Its value is 16.1 a cm.

And the “HEIGHT, percent” value ([1]; 62.5 g ai/ha, 28 DA-A)?
The value was “(154.5%)”.

What about the “HEIGHT, treatment mean” value ([1]; 62.5 g ai/ha, 28 DA-A) of the same compound?
The value was 24.9 a cm.

What about the “HEIGHT, percent” value ([1]; 125 g ai/ha, 15 DA-A) of the same compound?
The value was “(101.9%)”.

What about the “HEIGHT, treatment mean” value ([1]; 125 g ai/ha, 15 DA-A) of the same compound?
Its value is 11.9 b cm.

And the “HEIGHT, percent” value ([1]; 125 g ai/ha, 28 DA-A)?
Its value is “(109.7%)”.

What about the “HEIGHT, treatment mean” value ([1]; 125 g ai/ha, 28 DA-A) of the same compound?
The value was 17.7 ab cm.

And the “HEIGHT, percent” value ([1]; 250 g ai/ha, 15 DA-A)?
The value was “(81.4%)”.

What about the “HEIGHT, treatment mean” value ([1]; 250 g ai/ha, 15 DA-A) of the same compound?
Its value is 9.5 bc cm.

What about the “HEIGHT, percent” value ([1]; 250 g ai/ha, 28 DA-A) of the same compound?
The value was “(97.9%)”.

What about the “HEIGHT, treatment mean” value ([1]; 250 g ai/ha, 28 DA-A) of the same compound?
The value was 15.8 bc cm.

And the “HEIGHT, percent” value ([1]; 500 g ai/ha, 15 DA-A)?
Its value is “(66.2%)”.

And the “HEIGHT, treatment mean” value ([1]; 500 g ai/ha, 15 DA-A)?
The value was 7.7 c cm.

What about the “HEIGHT, percent” value ([1]; 500 g ai/ha, 28 DA-A) of the same compound?
Its value is “(82.1%)”.

What about the “HEIGHT, treatment mean” value ([1]; 500 g ai/ha, 28 DA-A) of the same compound?
Its value is 13.2 bc cm.

What about the “HEIGHT, percent” value ([1]; 1000 g ai/ha, 15 DA-A) of the same compound?
The value was “(59.5%)”.

What about the “HEIGHT, treatment mean” value ([1]; 1000 g ai/ha, 15 DA-A) of the same compound?
Its value is 6.9 c cm.

What about the “HEIGHT, percent” value ([1]; 1000 g ai/ha, 28 DA-A) of the same compound?
The value was “(55.2%)”.

And the “HEIGHT, treatment mean” value ([1]; 1000 g ai/ha, 28 DA-A)?
The value was 8.9 c cm.

And the “Plant HEIGHT, Mean” value [2, 9]?
Its value is 59.9 cm.

What about the “Plant HEIGHT, single plots” value [2, 9] of the same compound?
Its value is 55.3 cm and 68.0 cm and 56.3 cm.

What about the “Plant HEIGHT, Mean” value [2, 10] of the same compound?
Its value is 59.3 cm.

And the “Plant HEIGHT, single plots” value [2, 10]?
Its value is 68.7 cm and 55.0 cm and 54.3 cm.

What about the “Plant HEIGHT, Mean” value [2, 11] of the same compound?
The value was 61.3 cm.

What about the “Plant HEIGHT, single plots” value [2, 11] of the same compound?
Its value is 58.0 cm and 65.0 cm and 61.0 cm.

What about the “Plant HEIGHT, Mean” value [2, 12] of the same compound?
Its value is 60.4 cm.

What about the “Plant HEIGHT, single plots” value [2, 12] of the same compound?
Its value is 56.0 cm and 66.3 cm and 58.8 cm.

And the “Plant HEIGHT, Mean” value ([2]; 1000 g ai/ha + Energic NIS 0.2 % v/v)?
The value was 22.7 cm.

What about the “HEIGHT, percent” value ([2]; 62.5 g ai/ha, 15 DA-A) of the same compound?
The value was “(246.1%)”.

What about the “HEIGHT, treatment mean” value ([2]; 62.5 g ai/ha, 15 DA-A) of the same compound?
Its value is 59.9 a cm.

What about the “HEIGHT, percent” value ([2]; 62.5 g ai/ha, 28 DA-A) of the same compound?
Its value is “(296.5%)”.

And the “HEIGHT, treatment mean” value ([2]; 62.5 g ai/ha, 28 DA-A)?
Its value is 85.0 a cm and 85.0 cm.

What about the “HEIGHT, single plots (replicates)” value ([2]; 62.5 g ai/ha, 28 DA-A, plots 102, 205, 302) of the same compound?
Its value is 73.0 cm and 110.7 cm and 71.3 cm.

And the “HEIGHT, percent” value ([2]; 125 g ai/ha, 15 DA-A)?
The value was “(243.8%)”.

And the “HEIGHT, treatment mean” value ([2]; 125 g ai/ha, 15 DA-A)?
The value was 59.3 a cm.

What about the “HEIGHT, percent” value ([2]; 125 g ai/ha, 28 DA-A) of the same compound?
The value was “(277.1%)”.

And the “HEIGHT, treatment mean” value ([2]; 125 g ai/ha, 28 DA-A)?
The value was 79.4 a cm and 79.4 cm.

And the “HEIGHT, single plots (replicates)” value ([2]; 125 g ai/ha, 28 DA-A, plots 103, 206, 305)?
The value was 102.7 cm and 71.3 cm and 64.3 cm.

What about the “HEIGHT, percent” value ([2]; 250 g ai/ha, 15 DA-A) of the same compound?
Its value is “(252.1%)”.

What about the “HEIGHT, treatment mean” value ([2]; 250 g ai/ha, 15 DA-A) of the same compound?
Its value is 61.3 a cm.

And the “HEIGHT, percent” value ([2]; 250 g ai/ha, 28 DA-A)?
Its value is “(355.0%)”.

And the “HEIGHT, treatment mean” value ([2]; 250 g ai/ha, 28 DA-A)?
Its value is 101.8 a cm and 101.8 cm.

What about the “HEIGHT, single plots (replicates)” value ([2]; 250 g ai/ha, 28 DA-A, plots 104, 201, 306) of the same compound?
The value was 101.3 cm and 104.0 cm and 100.0 cm.

And the “HEIGHT, percent” value ([2]; 500 g ai/ha, 15 DA-A)?
Its value is “(248.2%)”.

What about the “HEIGHT, treatment mean” value ([2]; 500 g ai/ha, 15 DA-A) of the same compound?
Its value is 60.4 a cm.

And the “HEIGHT, percent” value ([2]; 500 g ai/ha, 28 DA-A)?
The value was “(266.7%)”.

And the “HEIGHT, treatment mean” value ([2]; 500 g ai/ha, 28 DA-A)?
Its value is 76.4 a cm and 76.4 cm.

And the “HEIGHT, single plots (replicates)” value ([2]; 500 g ai/ha, 28 DA-A, plots 105, 202, 301)?
Its value is 44.7 cm and 89.7 cm and 95.0 cm.

What about the “HEIGHT, percent” value ([2]; 1000 g ai/ha, 15 DA-A) of the same compound?
The value was “(93.2%)”.

And the “HEIGHT, treatment mean” value ([2]; 1000 g ai/ha, 15 DA-A)?
Its value is 22.7 b cm.

And the “HEIGHT, percent” value ([2]; 1000 g ai/ha, 28 DA-A)?
Its value is “(123.6%)”.

What about the “HEIGHT, treatment mean” value ([2]; 1000 g ai/ha, 28 DA-A) of the same compound?
The value was 35.4 b cm and 35.4 cm.

What about the “HEIGHT, single plots (replicates)” value ([2]; 1000 g ai/ha, 28 DA-A, plots 106, 203, 304) of the same compound?
Its value is 75.3 cm and 9.3 cm and 21.7 cm.

Reference: patent US20170318812A1, “Plant and Crop Growth Regulating/Biostimulant Formulations and Methods of Use” (Arysta Lifescience North America, LLC, priority 2014, published 2017)
